Source: the NIST ThermoML archive (doi:10.1016/j.fluid.2014.11.020)
± gives the expanded uncertainty stated by the source.

Test: activity coefficient (dimensionless); of the first substance listed, at infinite dilution; xn = mol fraction of the nth substance listed
Settings: Liquid, Chromatography, x1 = 0

SMILES	activity coefficient (323.15 K)	activity coefficient (333.15 K)	activity coefficient (343.15 K)
Cc1ccc(C)cc1 [1,4-dimethylbenzene] + CN(C)c1cc[n+](COCCCOC[n+]2ccc(N(C)C)cc2)cc1.O=S(=O)([N-]S(=O)(=O)C(F)(F)F)C(F)(F)F.O=S(=O)([N-]S(=O)(=O)C(F)(F)F)C(F)(F)F	1.34 ± 0.09	1.36 ± 0.09	1.37 ± 0.09
Cc1ccc(C)cc1 [1,4-dimethylbenzene] + Cn1cc[n+](COCCCOC[n+]2ccn(C)c2)c1.N#C[N-]C#N.N#C[N-]C#N	10.5 ± 0.72	10.2 ± 0.69	9.96 ± 0.68
Cc1ccc(C)cc1 [1,4-dimethylbenzene] + Cn1cc[n+](COCCCOC[n+]2ccn(C)c2)c1.O=S(=O)([N-]S(=O)(=O)C(F)(F)F)C(F)(F)F.O=S(=O)([N-]S(=O)(=O)C(F)(F)F)C(F)(F)F	2.39 ± 0.16	2.41 ± 0.16	2.34 ± 0.16
Cc1ccc(C)cc1 [1,4-dimethylbenzene] + N#C[N-]C#N.N#C[N-]C#N.c1ccc(Cn2cc[n+](COCCCOC[n+]3ccn(Cc4ccccc4)c3)c2)cc1	8.84 ± 0.6	8.42 ± 0.57	8.16 ± 0.56
C1COCCO1 [1,4-dioxane] + CCCCCCCCn1cc[n+](COCCC)c1C.N#C[N-]C#N	0.77 ± 0.05	0.78 ± 0.05	0.78 ± 0.05
C1COCCO1 [1,4-dioxane] + CCCCCCCCn1cc[n+](COCCC)c1C.O=S(=O)([N-]S(=O)(=O)C(F)(F)F)C(F)(F)F	0.5 ± 0.04	0.49 ± 0.04	0.49 ± 0.04
C1COCCO1 [1,4-dioxane] + CCCCCCCCn1cc[n+](COCCCOC[n+]2ccn(CCCCCCCC)c2C)c1C.N#C[N-]C#N.N#C[N-]C#N	0.55 ± 0.04	0.55 ± 0.04	0.55 ± 0.04
C1COCCO1 [1,4-dioxane] + CCCCCCCCn1cc[n+](COCCCOC[n+]2ccn(CCCCCCCC)c2C)c1C.O=S(=O)([N-]S(=O)(=O)C(F)(F)F)C(F)(F)F.O=S(=O)([N-]S(=O)(=O)C(F)(F)F)C(F)(F)F	0.28 ± 0.03	0.27 ± 0.03	0.28 ± 0.03
C1COCCO1 [1,4-dioxane] + CCCOC[n+]1ccc(N(C)C)cc1.O=S(=O)([N-]S(=O)(=O)C(F)(F)F)C(F)(F)F	0.56 ± 0.04	0.59 ± 0.04	0.59 ± 0.04
C1COCCO1 [1,4-dioxane] + CCCOC[n+]1ccn(C)c1.F[B-](F)(F)F	1.39 ± 0.09	1.42 ± 0.09	1.46 ± 0.1
C1COCCO1 [1,4-dioxane] + CCCOC[n+]1ccn(C)c1.N#C[N-]C#N	1.06 ± 0.07	1.09 ± 0.07	1.12 ± 0.07
C1COCCO1 [1,4-dioxane] + CCCOC[n+]1ccn(C)c1.O=S(=O)([N-]S(=O)(=O)C(F)(F)F)C(F)(F)F	0.57 ± 0.04	0.57 ± 0.04	0.58 ± 0.04
C1COCCO1 [1,4-dioxane] + CCCOC[n+]1ccn(Cc2ccccc2)c1.F[B-](F)(F)F	0.95 ± 0.06	0.95 ± 0.06	0.96 ± 0.06
C1COCCO1 [1,4-dioxane] + CCCOC[n+]1ccn(Cc2ccccc2)c1.N#C[N-]C#N	0.84 ± 0.05	0.88 ± 0.06	0.89 ± 0.06
C1COCCO1 [1,4-dioxane] + CCCOC[n+]1ccn(Cc2ccccc2)c1.O=S(=O)([N-]S(=O)(=O)C(F)(F)F)C(F)(F)F	0.4 ± 0.03	0.36 ± 0.03	0.35 ± 0.03
C1COCCO1 [1,4-dioxane] + CN(C)c1cc[n+](COCCCOC[n+]2ccc(N(C)C)cc2)cc1.O=S(=O)([N-]S(=O)(=O)C(F)(F)F)C(F)(F)F.O=S(=O)([N-]S(=O)(=O)C(F)(F)F)C(F)(F)F	0.44 ± 0.04	0.45 ± 0.04	0.45 ± 0.04

SMILES	activity coefficient (323.15 K)	activity coefficient (333.15 K)	activity coefficient (343.15 K)
C1COCCO1 [1,4-dioxane] + Cn1cc[n+](COCCCOC[n+]2ccn(C)c2)c1.N#C[N-]C#N.N#C[N-]C#N	1.09 ± 0.07	1.11 ± 0.07	1.13 ± 0.07
C1COCCO1 [1,4-dioxane] + Cn1cc[n+](COCCCOC[n+]2ccn(C)c2)c1.O=S(=O)([N-]S(=O)(=O)C(F)(F)F)C(F)(F)F.O=S(=O)([N-]S(=O)(=O)C(F)(F)F)C(F)(F)F	0.37 ± 0.03	0.39 ± 0.03	0.39 ± 0.03
C1COCCO1 [1,4-dioxane] + N#C[N-]C#N.N#C[N-]C#N.c1ccc(Cn2cc[n+](COCCCOC[n+]3ccn(Cc4ccccc4)c3)c2)cc1	1.32 ± 0.09	1.32 ± 0.09	1.35 ± 0.09
C#CCCCCC [1-heptyne] + CCCCCCCCn1cc[n+](COCCC)c1C.N#C[N-]C#N	2.11 ± 0.14	2.09 ± 0.14	
C#CCCCCC [1-heptyne] + CCCCCCCCn1cc[n+](COCCC)c1C.O=S(=O)([N-]S(=O)(=O)C(F)(F)F)C(F)(F)F	1.68 ± 0.11	1.64 ± 0.11	1.62 ± 0.11
C#CCCCCC [1-heptyne] + CCCCCCCCn1cc[n+](COCCCOC[n+]2ccn(CCCCCCCC)c2C)c1C.N#C[N-]C#N.N#C[N-]C#N	2.1 ± 0.14	2.12 ± 0.14	2.15 ± 0.15
C#CCCCCC [1-heptyne] + CCCCCCCCn1cc[n+](COCCCOC[n+]2ccn(CCCCCCCC)c2C)c1C.O=S(=O)([N-]S(=O)(=O)C(F)(F)F)C(F)(F)F.O=S(=O)([N-]S(=O)(=O)C(F)(F)F)C(F)(F)F	1.4 ± 0.09	1.4 ± 0.09	1.41 ± 0.09
C#CCCCCC [1-heptyne] + CCCOC[n+]1ccc(N(C)C)cc1.O=S(=O)([N-]S(=O)(=O)C(F)(F)F)C(F)(F)F	3.33 ± 0.23	3.35 ± 0.23	3.34 ± 0.23
C#CCCCCC [1-heptyne] + CCCOC[n+]1ccn(C)c1.F[B-](F)(F)F	16.6 ± 1.1	16.7 ± 1.1	16.7 ± 1.1
C#CCCCCC [1-heptyne] + CCCOC[n+]1ccn(C)c1.N#C[N-]C#N	10.9 ± 0.74	10.9 ± 0.74	10.7 ± 0.73
C#CCCCCC [1-heptyne] + CCCOC[n+]1ccn(Cc2ccccc2)c1.F[B-](F)(F)F	8.53 ± 0.58	8.35 ± 0.57	8.28 ± 0.56
C#CCCCCC [1-heptyne] + CCCOC[n+]1ccn(Cc2ccccc2)c1.N#C[N-]C#N	6.34 ± 0.43	6.08 ± 0.41	
C#CCCCCC [1-heptyne] + CCCOC[n+]1ccn(Cc2ccccc2)c1.O=S(=O)([N-]S(=O)(=O)C(F)(F)F)C(F)(F)F	2.82 ± 0.19	2.42 ± 0.16	2.25 ± 0.15
C#CCCCCC [1-heptyne] + CN(C)c1cc[n+](COCCCOC[n+]2ccc(N(C)C)cc2)cc1.O=S(=O)([N-]S(=O)(=O)C(F)(F)F)C(F)(F)F.O=S(=O)([N-]S(=O)(=O)C(F)(F)F)C(F)(F)F	4.2 ± 0.29	4.09 ± 0.28	4.01 ± 0.27
C#CCCCCC [1-heptyne] + Cn1cc[n+](COCCCOC[n+]2ccn(C)c2)c1.N#C[N-]C#N.N#C[N-]C#N	27.6 ± 1.9	26.2 ± 1.8	26.1 ± 1.8
